In patent US4885239A, “Rapid differentiation of bacteria using polyether antibiotics” (Eastman Kodak Company, priority 1986, dated 1989):

Columns and labels:
E. coli (gram -) [1] = assay: inhibition of the reduction of RIND XXXV (Examples 8 and 9), E. coli; assay type: cell-based, Escherichia coli (ATCC 25922); conditions: 50 μl of 10 mg/ml antibiotic premixed with 1 ml cells (septamycin with calcium chloride), 30 minutes, 37° C., average of two replicates
Procedure: (§1) gram-negative bacteria Enterobacter cloacae (ATCC 23355), Escherichia coli (ATCC 25922), Proteus vulgaris (ATCC 13315), Klebsiella pneumoniae (ATCC 13883) and Pseudomonas aeruginosa (ATCC 27853), and gram-positive bacteria Staphylococcus aureus (ATCC 25923) and Streptococcus pyogenes (ATCC 19615), and brain heart infusion (BHI) broth from Difco Laboratories (Detroit, Mich.),
(§2) Bacterial suspensions were prepared by growing the cells in BHI to stationary phase overnight at 37° C. P. aeruginosa was grown with agitation. […]
(§3) Optical density readings (OD) were made at 635 nm at 0 minutes and after incubation at 37° C. for 30 minutes for all solutions, and the change (ΔOD) was determined. Table V below lists the results expressed as corrected percent inhibition of the reduction of RIND VII. The corrected percent inhibition was calculated by dividing the difference between ΔOD obtained from a Control test without antibiotic and the ΔOD of the test, by the ΔOD of the Control without antibiotic. All readings were corrected by subtracting readings of the appropriate background control. […]
(§4) Relative fluorescence was measured at an emission of 620 nm after excitation at 540 nm using a […] microfluor Reader, and the change in fluorescence (Δ relative fluorescence) after 30 minutes at 37° C. was determined as the average of two replicates.

S. aureus (gram +) [2] = assay: inhibition of the reduction of RIND XXXV (Examples 8 and 9), S. aureus; assay type: cell-based, Staphylococcus aureus (ATCC 25923); conditions: 50 μl of 10 mg/ml antibiotic premixed with 1 ml cells (septamycin with calcium chloride), 30 minutes, 37° C., average of two replicates
Procedure: as §1, §2, §3, §4

[3] = test system: viable gram-positive and gram-negative bacteria; assay: differentiation of viable gram-positive and gram-negative bacteria (outcome in words); assay type: cell-based; conditions: for differentiation of gram-positive and gram-negative bacteria: RIND XXXV, Examples 8 and 9; for differentiating gram-positive and gram-negative bacteria: RIND VII, Examples 2-3
Procedure: as §1
(§5) Bacterial suspensions were prepared by growing the cells in BHI to stationary phase overnight at 37° C. P. aeruginosa was grown with agitation. About 40 ml of overnight cultures were centrifuged, decanted and washed once with 0.05 molar potassium phosphate buffer or 0.05 molar N-2-hydroxyethylpiperazine-N'-2-ethanesulfonic acid (HEPES) buffer, pH 7.8, and resuspended in buffer.
TERGITOL 7 anionic surfactant was used to differentiate viable bacteria according to the prior art method. Various concentrations of TERGITOL 7 surfactant were mixed with a 10% glucose solution (50 μl), 3-(4,5-dimethyl-2-thiazolyl)-2,5-diphenyl-2N-tetrazolium bromide (MTT) in methanol (25 μl at 5 mg/ml) or a RIND VII dispersion (1.5 ml) and phenazine methosulfate ETA (25 μl at 3 mg/ml methanol). The volume of each test solution was brought to 3 ml with potassium phosphate buffer. A cell suspension (100 μl at about 10^8 cells/ml) was then added. The solutions were incubated at 37° C. for 15 and 30 minutes in the presence of either E. coli, a gram (-) bacterium, or S. aureus, a gram (+) bacterium. The amount of dye formed was then determined visually and graded as follows: 0 indicates no dye formation, +/- indicates faint dye formation, 1+ indicates light dye formation, 2+ indicates moderate dye formation, 3+ indicates strong dye formation, and 4+ indicates very strong dye formation.
Calimycin, a polyether antibiotic, was similarly used with RIND VII in the differentiation of bacteria. Assays were performed as described above, except that 25 μl of 1 molar calcium chloride solution was added to each test solution and the P. aeruginosa response was measured in the presence of 10% yeast extract as the carbon source instead of glucose. The final concentration of calimycin in each test was 10^-3 molar.
(§6) The test solutions were prepared by adding the following, in order: 1.2 ml HEPES, 50 μl glucose solution, 1.5 ml RIND VII dispersion, 100 μl antibiotic solution, 100 μl cell suspension and 25 μl ETA solution. Cell control solutions contained all reagents except antibiotics. Background Controls consisted of both buffer and solution controls. The buffer control contained all reagents except antibiotics and cells. The solution control contained all reagents except cells.
(§7) Optical density readings (OD) were made at 635 nm at 0 minutes and after incubation at 37° C. for 30 minutes for all solutions, and the change (ΔOD) was determined. Table V below lists the results expressed as corrected percent inhibition of the reduction of RIND VII. The corrected percent inhibition was calculated by dividing the difference between ΔOD obtained from a Control test without antibiotic and the ΔOD of the test, by the ΔOD of the Control without antibiotic. All readings were corrected by subtracting readings of the appropriate background control.
Relative fluorescence was measured using a standard spectrophotometer modified to read at excitation of 540 nm and emission of 620 nm. The change (Δ) in relative fluorescence was determined after 30 minutes at 37° C. for several concentration levels of antibiotic.
Optical density measurements were obtained at 540 nm using a standard spectrophotometer and the change in optical density (ΔOD) was determined after 30 minutes at 37° C. The resulting data are shown in Table VII below for several concentrations of antibiotic. It is clear from the data that the composition of this example was useful for differentiating bacteria. […]

E. coli (gram -) [4] = assay: inhibition of the reduction of RIND VII (solution assay, Examples 2-3), E. coli; assay type: cell-based, Escherichia coli (ATCC 25922); conditions: 635 nm, 30 minutes, 37° C.
Procedure: as §1, §5
(§8) A dispersion containing a RIND compound was prepared by dissolving RIND VII from Table II above in N,N-dimethylformamide (DMF) at 16 mg compound per ml of solvent. An aliquot (250 μl) of the resulting solution was added to 500 μl of TRITON X-100 surfactant. This mixture was then added dropwise with stirring to 25 ml of 0.05 molar HEPES buffer. A solution containing a water-compatible RIND compound XXXV was prepared by dissolving the compound (16 mg/ml) in N,N-dimethylformamide which had been acidified with a 0.1% sulfuric acid solution.
(§9) The following materials were used in these examples: stock dispersion of RIND VII as described above, glucose (10% in water), trimethyl-1,4-benzoquinone ETA (1.5 mg/ml methanol), each antibiotic at 1, 5, and 10 mg/ml methanol. Microbial cells were grown as described above. The final approximate cell concentrations were: 1.4×10^7 cells/ml for E. coli and 2.4×10^7 cells/ml for S. aureus.
as §6, §7

S. aureus (gram +) [5] = assay: inhibition of the reduction of RIND VII (solution assay, Examples 2-3), S. aureus; assay type: cell-based, Staphylococcus aureus (ATCC 25923); conditions: 635 nm, 30 minutes, 37° C.
Procedure: as §1, §5, §8, §9, §6, §7

[6] = E1/2 (reduction potential) of the quinone nucleus of RIND compounds; assay type: physicochemical; conditions: quinone nucleus with hydrogen in place of the side chain
Text: Examples of such nuclei are presented below. […] Preferably, the E1/2 is from about +100 mV to about +400 mV as measured in water, or from about -650 to about -300 mV as measured in acetonitrile. […] Further details of measuring the E1/2 are described below prior to Table I. The desired E1/2 is achieved by appropriate electron withdrawing groups on the CAR--nucleus, or by a strained fused ring attached to the nucleus or a combination of both.
A standard calomel electrode was used as a standard. Some E1/2 values (denoted by *) were measured in acetonitrile using a saturated calomel electrode as a standard. E1/2 values not available are denoted by "NA".

[7] = aqueous emulsion, DMF, TRITON X-100, sodium phosphate buffer pH 7, calomel electrode
[8] = (*) in acetonitrile, saturated calomel electrode

For `COC1CCC(OC2C(C)C(O)(C(C)C(=O)O)OC(CC3CC(OC)C(C)C4(O3)OC(C)(C3CCC(C5CCC(C6OC(C)(O)C(C)C(OC)C6C)O5)O3)C(OC)C4C)C2(C)OC)OC1C` (stereo not drawn) [Antibiotic A204], the “Corrected Percent Inhibition” value (E. coli (gram -) [1]) was 3.6%, the “Corrected Percent Inhibition” value (S. aureus (gram +) [2]) was 35.8% and the “differentiation of gram-positive and gram-negative bacteria” value [3] was “useful for differentiation of gram-positive and gram-negative bacteria”.
For `CC[C@@H](C(=O)[C@@H](C)[C@@H](O)[C@H](C)CCc1ccc(C)c(O)c1C(=O)O)[C@H]1O[C@](CC)([C@H]2CC[C@](O)(CC)[C@H](C)O2)C[C@@H]1C` [Lasalocid, lasalocid], the “Corrected Percent Inhibition” value (E. coli (gram -) [4]; antibiotic 0.033 mg/ml) was 6.6%, the “Corrected Percent Inhibition” value (E. coli (gram -) [4]; antibiotic 0.166 mg/ml) was 10.5% and the “Corrected Percent Inhibition” value (E. coli (gram -) [4]; antibiotic 0.333 mg/ml) was 25.5%. For the same compound, the “Corrected Percent Inhibition” value (S. aureus (gram +) [5]; antibiotic 0.033 mg/ml) was 35.2%, the “Corrected Percent Inhibition” value (S. aureus (gram +) [5]; antibiotic 0.166 mg/ml) was 50.9% and the “Corrected Percent Inhibition” value (S. aureus (gram +) [5]; antibiotic 0.333 mg/ml) was 60.1%. The “differentiating gram-positive and gram-negative bacteria” value [3] was “effective in differentiating gram-positive and gram-negative bacteria”.
In the case of `CC[C@@]1([C@@H]2O[C@@H]([C@H]3O[C@@](O)(CO)[C@H](C)C[C@@H]3C)C[C@@H]2C)CC[C@H]([C@]2(C)CC[C@]3(C[C@H](O)[C@@H](C)[C@@H]([C@@H](C)[C@@H](OC)[C@H](C)C(=O)O)O3)O2)O1` [Monensin, monensin A], the “Corrected Percent Inhibition” value (E. coli (gram -) [4]; antibiotic 0.033 mg/ml) is reported as 5.1%, the “Corrected Percent Inhibition” value (E. coli (gram -) [4]; antibiotic 0.166 mg/ml) is reported as “No inhibition” and the “Corrected Percent Inhibition” value (E. coli (gram -) [4]; antibiotic 0.333 mg/ml) is reported as “No inhibition”. For the same compound, the “Corrected Percent Inhibition” value (S. aureus (gram +) [5]; antibiotic 0.033 mg/ml) was 34.4%, the “Corrected Percent Inhibition” value (S. aureus (gram +) [5]; antibiotic 0.166 mg/ml) was 43.0% and the “Corrected Percent Inhibition” value (S. aureus (gram +) [5]; antibiotic 0.333 mg/ml) was 42.0%. For the same compound, the “differentiating gram-positive and gram-negative bacteria” value [3] was “effective in differentiating gram-positive and gram-negative bacteria”.
In the case of `CC(C1=C(CN(C)C(=O)Oc2ccc(N=Nc3ccc([N+](=O)[O-])cc3S(C)(=O)=O)c3c(NS(=O)(=O)c4cccc(S(N)(=O)=O)c4)cccc23)C(=O)C(C(C)c2ccc([N+](=O)[O-])cc2)=C(CN(C)C(=O)Oc2ccc(N=Nc3ccc([N+](=O)[O-])cc3S(C)(=O)=O)c3c(NS(=O)(=O)c4cccc(S(N)(=O)=O)c4)cccc23)C1=O)c1ccc([N+](=O)[O-])cc1` (stereo not drawn) [RIND II], the E1/2 [6, 7] is reported as “+236 mV”.
For `CN(CC1=C(c2ccccc2)C(=O)C(CN(C)C(=O)Oc2ccc(N=Nc3ccc([N+](=O)[O-])cc3S(C)(=O)=O)c3c(NS(=O)(=O)c4cccc(S(N)(=O)=O)c4)cccc23)=C(c2ccccc2)C1=O)C(=O)Oc1ccc(N=Nc2ccc([N+](=O)[O-])cc2S(C)(=O)=O)c2c(NS(=O)(=O)c3cccc(S(N)(=O)=O)c3)cccc12` [RIND IV], the E1/2 [6, 8] was -460 mV.
Compound `CCCCCCCCCCNS(=O)(=O)c1ccc(C(C)C2=C(CN(C)C(=O)Oc3ccc(N=Nc4ccc([N+](=O)[O-])cc4S(C)(=O)=O)c4c(NS(=O)(=O)c5cccc(S(N)(=O)=O)c5)cccc34)C(=O)C(C(C)c3ccc(S(=O)(=O)NCCCCCCCCCC)cc3)=C(CN(C)C(=O)Oc3ccc(N=Nc4ccc([N+](=O)[O-])cc4S(C)(=O)=O)c4c(NS(=O)(=O)c5cccc(S(N)(=O)=O)c5)cccc34)C2=O)cc1` (stereo not drawn) [RIND I] has an E1/2 [6, 8] of -528 mV.
In the case of `CN(CC1=C(c2ccc(C#N)cc2)C(=O)C2=C(C1=O)C1C=CC2CC1)C(=O)Oc1ccc(N=Nc2ccc([N+](=O)[O-])cc2S(C)(=O)=O)c2c(NS(=O)(=O)c3cccc(S(N)(=O)=O)c3)cccc12` (stereo not drawn) [RIND XVII], the E1/2 [6, 7] is reported as “+240 mV”.
`CCCCCCCCCCNS(=O)(=O)c1ccc(C(C)C2=C(CN(C)C(=O)Oc3ccc4c(C)cc(=O)oc4c3)C(=O)C(C(C)c3ccc(S(=O)(=O)NCCCCCCCCCC)cc3)=C(CN(C)C(=O)Oc3ccc4c(C)cc(=O)oc4c3)C2=O)cc1` (stereo not drawn) [RIND XXII] gave an E1/2 [6, 8] of -528 mV.
`CCCCCCCCCCNS(=O)(=O)c1ccc(C(C)C2=C(CN(C)C(=O)Oc3ccc(N=Nc4cccc(S(N)(=O)=O)c4)c4c(NS(C)(=O)=O)cccc34)C(=O)C(C(C)c3ccc(S(=O)(=O)NCCCCCCCCCC)cc3)=C(CN(C)C(=O)Oc3ccc(N=Nc4cccc(S(N)(=O)=O)c4)c4c(NS(C)(=O)=O)cccc34)C2=O)cc1` (stereo not drawn) [RIND XXI] showed an E1/2 [6, 8] of -528 mV.
With `CC1=C(C)C(=O)C(c2ccccc2)=C(CN(C)C(=O)Oc2ccc(N=Nc3ccc([N+](=O)[O-])cc3S(C)(=O)=O)c3c(NS(=O)(=O)c4cccc(S(N)(=O)=O)c4)cccc23)C1=O` [RIND XXXVI] the E1/2 [6, 7] was “+144 mV”.
For `CO[C@H]1C[C@@H](C[C@H]2O[C@@](O)([C@H](C)C(=O)O)[C@H](C)[C@H](OC)[C@@]2(C)O[C@H]2CC[C@@H](OC)[C@H](C)O2)O[C@]2(O[C@@](C)([C@@H]3CC[C@H]([C@H]4CC[C@H]([C@H]5O[C@](C)(O)[C@H](C)C[C@@H]5C)O4)O3)[C@H](OC)[C@H]2C)[C@@H]1C` [Septamycin, septamycin], the “Corrected Percent Inhibition” value (E. coli (gram -) [1]) was 52.3%, the “Corrected Percent Inhibition” value (S. aureus (gram +) [2]) was 74.9% and the “differentiation of gram-positive and gram-negative bacteria” value [3] was “useful for differentiation of gram-positive and gram-negative bacteria”.
